What all share (type): functional
The test system of test [1] is Enterococcus faecalis. Put plainly: In vitro antibacterial activity against vancomycin-susceptible E. f. 034 (Enterococcus faecalis ATCC 29212).
Test [2] relates to Enterococcus faecalis. Put plainly: In vitro antibacterial activity against vancomycin-susceptible E. f. 153 (Enterococcus faecalis ATCC 29212).
In test [3] the test system is Staphylococcus aureus. Put plainly: In vitro antibacterial activity against methicillin-resistant S. a. 019 (Staphylococcus aureus ATCC 33591 ).
The subject of test [4] is Staphylococcus aureus. Put plainly: In vitro antibacterial activity against S. a. 213 (Staphylococcus. aureus ATCC 49951).
The test system of test [5] is Enterococcus faecium. Put plainly: In vitro antibacterial activity against vancomycin-resistant Enterococcus faecium 154 (Enterococcus faecium ATCC 12202).
Test [6] relates to Staphylococcus aureus. Put plainly: In vitro antibacterial activity against S. a. 035 (Staphylococcus aureus ATCC 29213).
Test [7] deals with Staphylococcus aureus. Put plainly: In vitro antibacterial activityd against methicillin-resistant S. a. 019 (Staphylococcus aureus ATCC 33591 ).
Test [8] relates to Enterococcus faecium. Put plainly: In vitro antibacterial activityd against vancomycin-resistant Enterococcus faecium 154 (Enterococcus faecium ATCC 12202).
The subject of test [9] is Staphylococcus aureus. Put plainly: In vitro minimum inhibitory concentration of compound against S. a. 035 (Staphylococcus aureus ATCC 29213).

Values after ≈ are worked out from the molar mass of the structure shown. Where only a bound is given, the exact number is not on record here.

A word on the MIC: it is the lowest concentration that inhibits growth of the organism. A high value points to weaker potency. Regarding `CC(=O)NNC[C@H]1CN(c2ccc(OCCN3CCCCC3)c(F)c2)C(=O)O1`, the minimal inhibitory concentration (MIC) with Enterococcus faecalis [1] worked out at 64 µg/mL (≈ 162 µM); against Enterococcus faecalis [2] it was 64 µg/mL (≈ 162 µM); in the test on Staphylococcus aureus [3], 32 µg/mL (≈ 81.1 µM); in the test on Staphylococcus aureus [4] it was 64 µg/mL (≈ 162 µM); in the test with Enterococcus faecium [5], 64 µg/mL (≈ 162 µM); in the test on Staphylococcus aureus [6], 64 µg/mL (≈ 162 µM).

For the molecule `CO/C(S)=N/NC[C@H]1CN(c2ccc(OCCN3CCSCC3)c(F)c2)C(=O)O1`, the MIC in the test with Enterococcus faecalis [1] is 1 µg/mL (≈ 2.25 µM); with Enterococcus faecalis [2], 2 µg/mL (≈ 4.5 µM); against Staphylococcus aureus [4] it was 4 µg/mL (≈ 9 µM); in the test on Staphylococcus aureus [7] it was 1 µg/mL (≈ 2.25 µM); with Enterococcus faecium [5] it was 2 µg/mL (≈ 4.5 µM); with Staphylococcus aureus [6] it was 4 µg/mL (≈ 9 µM).

For the molecule `CC(=O)NNC[C@H]1CN(c2ccc(OCCN3CCOCC3)cc2)C(=O)O1`, the MIC in the test on Enterococcus faecalis [1], in the test on Enterococcus faecalis [2], in the test on Staphylococcus aureus [3], against Enterococcus faecium [5] and in the test with Staphylococcus aureus [6] was above 32 µg/mL in each case.

Turning to `CC(=O)NNC[C@H]1CN(c2ccc(OCCN3CCCC3)cc2)C(=O)O1`, the minimum inhibitory concentration (MIC) against Enterococcus faecalis [1] is above 32 µg/mL; with Enterococcus faecalis [2] it was above 32 µg/mL; against Staphylococcus aureus [3], 32 µg/mL (≈ 88.3 µM); against Enterococcus faecium [5], above 32 µg/mL; in the test with Staphylococcus aureus [6], above 32 µg/mL.

For the molecule `CC(=O)NNC[C@H]1CN(c2ccc(OCCN3CCCCC3)cc2)C(=O)O1`, the minimal inhibitory concentration (MIC) in the test on Enterococcus faecalis [1], in the test on Enterococcus faecalis [2], in the test on Staphylococcus aureus [3], in the test with Enterococcus faecium [5] and against Staphylococcus aureus [6] was above 32 µg/mL each time.

For the molecule `CC(=O)NNC[C@H]1CN(c2ccc(OCCN3CCOCC3)c(F)c2)C(=O)O1`, the MIC is 16 µg/mL (≈ 40.4 µM) in the test with Enterococcus faecalis [1]; 16 µg/mL (≈ 40.4 µM) against Enterococcus faecalis [2]; 4 µg/mL (≈ 10.1 µM) in the test on Staphylococcus aureus [3]; 16 µg/mL (≈ 40.4 µM) with Staphylococcus aureus [4]; 4 µg/mL (≈ 10.1 µM) against Enterococcus faecium [5]; 16 µg/mL (≈ 40.4 µM) against Staphylococcus aureus [6].

On to `CC(=O)NNC[C@H]1CN(c2ccc(OCCN3CCSCC3)c(F)c2)C(=O)O1`, for which the MIC in the test with Enterococcus faecalis [1] turned out to be 16 µg/mL (≈ 38.8 µM); with Enterococcus faecalis [2] it was 16 µg/mL (≈ 38.8 µM); in the test on Staphylococcus aureus [3], 4 µg/mL (≈ 9.7 µM); in the test with Staphylococcus aureus [4], 16 µg/mL (≈ 38.8 µM); in the test with Enterococcus faecium [5] it was 4 µg/mL (≈ 9.7 µM); in the test with Staphylococcus aureus [6], 16 µg/mL (≈ 38.8 µM).

As for `CN[C@H](CC(C)C)C(=O)N[C@H]1C(=O)N[C@@H](CC(N)=O)C(=O)N[C@H]2C(=O)N[C@H]3C(=O)N[C@H](C(=O)N[C@H](C(=O)O)c4cc(O)cc(O)c4-c4cc3ccc4O)[C@H](O)c3ccc(c(Cl)c3)Oc3cc2cc(c3O[C@@H]2O[C@H](CO)[C@@H](O)[C@H](O)[C@H]2O[C@H]2C[C@](C)(N)[C@H](O)[C@H](C)O2)Oc2ccc(cc2Cl)[C@H]1O` [VANCOMYCIN], the figures for the MIC in the test with Enterococcus faecalis [1], in the test on Enterococcus faecalis [2] and against Enterococcus faecium [5] were 2 µg/mL (≈ 1.38 µM), above 32 µg/mL and above 32 µg/mL, respectively.

For `CC(=O)NNC[C@H]1CN(c2ccc(OCCOCc3ccccc3)c(F)c2)C(=O)O1`, the MIC came to 32 µg/mL (≈ 76.7 µM) with Enterococcus faecalis [1]; 32 µg/mL (≈ 76.7 µM) against Enterococcus faecalis [2]; 8 µg/mL (≈ 19.2 µM) in the test on Staphylococcus aureus [3]; 32 µg/mL (≈ 76.7 µM) with Enterococcus faecium [8]; 16 µg/mL (≈ 38.3 µM) in the test with Staphylococcus aureus [6].

With `CC(=O)NNC[C@H]1CN(c2ccc(OCCO)c(F)c2)C(=O)O1`, the MIC with Enterococcus faecalis [1] was found to be 16 µg/mL (≈ 48.9 µM); with Enterococcus faecalis [2], 16 µg/mL (≈ 48.9 µM); against Staphylococcus aureus [7], 8 µg/mL (≈ 24.4 µM); against Enterococcus faecium [8] it was 16 µg/mL (≈ 48.9 µM); against Staphylococcus aureus [6] it was 8 µg/mL (≈ 24.4 µM).

For the molecule `CO/C(S)=N/NC[C@H]1CN(c2ccc(OCCN3CCOCC3)c(F)c2)C(=O)O1`, the minimal inhibitory concentration (MIC) turned out to be 2 µg/mL (≈ 4.67 µM) against Enterococcus faecalis [1]; 4 µg/mL (≈ 9.34 µM) in the test on Enterococcus faecalis [2]; 2 µg/mL (≈ 4.67 µM) in the test with Staphylococcus aureus [3]; 4 µg/mL (≈ 9.34 µM) against Staphylococcus aureus [4]; 2 µg/mL (≈ 4.67 µM) in the test on Enterococcus faecium [5]; 4 µg/mL (≈ 9.34 µM) in the test with Staphylococcus aureus [6].

Regarding `CC(=O)NC[C@H]1CN(c2ccc(N3CCOCC3)c(F)c2)C(=O)O1` [LINEZOLID], the MIC stood at 1 µg/mL (≈ 2.96 µM) with Staphylococcus aureus [3] and 2 µg/mL (≈ 5.93 µM) with Enterococcus faecium [5].

Regarding `C/C(S)=N/NC[C@H]1CN(c2ccc(OCCN3CCCCC3)c(F)c2)C(=O)O1`, the MIC turned out to be 8 µg/mL (≈ 19.5 µM) in the test on Enterococcus faecalis [1]; 4 µg/mL (≈ 9.74 µM) against Enterococcus faecalis [2]; 2 µg/mL (≈ 4.87 µM) with Staphylococcus aureus [3]; 8 µg/mL (≈ 19.5 µM) in the test on Staphylococcus aureus [4]; 4 µg/mL (≈ 9.74 µM) against Enterococcus faecium [5]; 8 µg/mL (≈ 19.5 µM) against Staphylococcus aureus [6].

Consider `C/C(S)=N/NC[C@H]1CN(c2ccc(OCCN3CCOCC3)c(F)c2)C(=O)O1`, for which the MIC in the test with Enterococcus faecalis [1] is 2 µg/mL (≈ 4.85 µM); with Enterococcus faecalis [2] it was 2 µg/mL (≈ 4.85 µM); against Staphylococcus aureus [3], 1 µg/mL (≈ 2.42 µM); in the test on Staphylococcus aureus [4], 2 µg/mL (≈ 4.85 µM); against Staphylococcus aureus [9], 2 µg/mL (≈ 4.85 µM); with Enterococcus faecium [5], 2 µg/mL (≈ 4.85 µM).

Turning to `C/C(S)=N/NC[C@H]1CN(c2ccc(OCCN3CCSCC3)c(F)c2)C(=O)O1`, the MIC against Enterococcus faecalis [1] stood at 1 µg/mL (≈ 2.33 µM); with Enterococcus faecalis [2], 2 µg/mL (≈ 4.67 µM); against Staphylococcus aureus [3], 0.5 µg/mL (≈ 1.17 µM); against Staphylococcus aureus [4], 2 µg/mL (≈ 4.67 µM); in the test on Enterococcus faecium [5], 2 µg/mL (≈ 4.67 µM); against Staphylococcus aureus [6], 2 µg/mL (≈ 4.67 µM).

(Values after ChEMBL document CHEMBL1136452, “Influence of ethylene-oxy spacer group on the activity of linezolid: synthesis of potent antibacterials possessing a thiocarbonyl group” (2003).)
